Measurements taken from US20230265116A1, “DEGRADATION OF (EGFR) BY CONJUGATION OF EGFR INHIBITORS WITH E3 LIGASE LIGAND AND METHODS OF USE” (BEIGENE, LTD., priority 2020, published 2023).

Legend:
Type in all cases: cell-based
[1] = biological target: T1, EGFR L858R/T790M/C797S (BaF3-LTC cells) (Homo sapiens, UniProt P00533, C797S/L858R/T790M); experiment: EGFR degradation HTRF assay, BaF3-LTC cells; details: BaF3-LTC cells; for DC50: EGFR degradation, IC50 (DC50) from curve fit, read-out: DC50(nM) BaF3-LTC; for Dmax: read-out: Dmax (%) BaF3-LTC
T1 construct: expressed in transfected cells; host or cells: BaF3
T1 sequence (P00533 25-1210 T790M/C797S/L858R): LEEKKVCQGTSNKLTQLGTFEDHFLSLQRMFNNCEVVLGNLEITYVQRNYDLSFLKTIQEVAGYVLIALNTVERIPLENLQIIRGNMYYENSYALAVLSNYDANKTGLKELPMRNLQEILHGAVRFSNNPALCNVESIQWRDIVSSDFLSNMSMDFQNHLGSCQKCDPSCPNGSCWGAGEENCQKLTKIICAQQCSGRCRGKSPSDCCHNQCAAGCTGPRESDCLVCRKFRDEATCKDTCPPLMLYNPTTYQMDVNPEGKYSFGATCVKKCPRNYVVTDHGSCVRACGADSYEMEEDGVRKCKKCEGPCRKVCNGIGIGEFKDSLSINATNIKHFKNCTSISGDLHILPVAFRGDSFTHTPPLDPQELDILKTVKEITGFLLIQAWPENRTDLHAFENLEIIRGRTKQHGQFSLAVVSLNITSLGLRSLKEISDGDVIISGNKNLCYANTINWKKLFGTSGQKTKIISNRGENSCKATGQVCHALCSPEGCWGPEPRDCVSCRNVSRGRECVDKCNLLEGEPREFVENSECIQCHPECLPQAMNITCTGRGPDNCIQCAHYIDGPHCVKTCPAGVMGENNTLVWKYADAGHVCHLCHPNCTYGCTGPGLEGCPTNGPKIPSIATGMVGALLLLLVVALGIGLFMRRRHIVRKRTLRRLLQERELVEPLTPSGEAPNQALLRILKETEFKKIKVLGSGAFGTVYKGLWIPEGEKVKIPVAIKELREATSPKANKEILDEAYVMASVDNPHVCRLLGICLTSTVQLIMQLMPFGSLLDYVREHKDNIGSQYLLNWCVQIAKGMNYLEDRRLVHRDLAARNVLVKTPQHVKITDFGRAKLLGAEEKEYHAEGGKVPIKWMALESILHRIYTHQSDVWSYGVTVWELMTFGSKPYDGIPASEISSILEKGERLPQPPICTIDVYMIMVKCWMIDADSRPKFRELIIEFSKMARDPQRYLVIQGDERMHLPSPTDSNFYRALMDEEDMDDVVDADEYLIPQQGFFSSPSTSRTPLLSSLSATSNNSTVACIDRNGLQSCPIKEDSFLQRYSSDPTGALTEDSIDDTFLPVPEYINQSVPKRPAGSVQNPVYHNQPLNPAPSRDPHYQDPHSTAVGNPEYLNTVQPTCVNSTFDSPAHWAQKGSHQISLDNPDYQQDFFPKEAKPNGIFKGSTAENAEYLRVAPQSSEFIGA
Outline: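 Cells treated 16 h at 37 °C, 5% CO2 in medium with 0.2% DMSO; top final concentration 10 uM, 5-fold dilution, 8 doses. Lysates read by HTRF (665/620 nm); degradation % versus DMSO high control, DC50 from four-parameter fit, Dmax as maximal degradation.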

[2] = test system: EGFR Del19/T790M/C797S (H1975-clone #28); experiment: EGFR degradation HTRF assay, H1975-clone #28 DTC cells; details: H1975 # 28 DTC cells; for DC50: EGFR degradation, IC50 (DC50) from curve fit, read-out: DC50(nM) H1975 # 28 DTC; for Dmax (%) H1975 # 28 DTC: maximum percentage of inhibition (degradation)
Outline: (§1)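 Compounds (top 10 uM, 5-fold, 8 points, 0.2% DMSO) incubated 16 h at 37 °C on homozygous clones: #23 Del19/C797S, #28 Del19/T790M/C797S, exogenous EGFR only in H1975. HTRF on lysates quantified remaining EGFR relative to DMSO; four-parameter fit gave DC50 and Dmax.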

[3] = test system: EGFR Del19/C797S (H1975-clone #23); experiment: EGFR degradation HTRF assay, H1975-clone #23 DC cells; details: 16h treatment; for H1975 #23 DC Dmax (%): maximum percentage of degradation; for DC50: H1975 #23 DC, read-out: H1975 #23 DC DC50
Outline: as §1

[4] = biological target: T2, EGFR L858R/C797S (BaF3 LC cells) (Homo sapiens, UniProt P00533, C797S/L858R); experiment: EGFR degradation HTRF assay, BaF3 LC cells; details: BaF3 LC, 16h treatment; for DC50: read-out: BaF3 LC DC50; for Dmax: maximum percentage of degradation, read-out: BaF3 LC Dmax (%)
T2 construct: expressed in transfected cells; host or cells: BaF3
T2 sequence (P00533 25-1210 C797S/L858R): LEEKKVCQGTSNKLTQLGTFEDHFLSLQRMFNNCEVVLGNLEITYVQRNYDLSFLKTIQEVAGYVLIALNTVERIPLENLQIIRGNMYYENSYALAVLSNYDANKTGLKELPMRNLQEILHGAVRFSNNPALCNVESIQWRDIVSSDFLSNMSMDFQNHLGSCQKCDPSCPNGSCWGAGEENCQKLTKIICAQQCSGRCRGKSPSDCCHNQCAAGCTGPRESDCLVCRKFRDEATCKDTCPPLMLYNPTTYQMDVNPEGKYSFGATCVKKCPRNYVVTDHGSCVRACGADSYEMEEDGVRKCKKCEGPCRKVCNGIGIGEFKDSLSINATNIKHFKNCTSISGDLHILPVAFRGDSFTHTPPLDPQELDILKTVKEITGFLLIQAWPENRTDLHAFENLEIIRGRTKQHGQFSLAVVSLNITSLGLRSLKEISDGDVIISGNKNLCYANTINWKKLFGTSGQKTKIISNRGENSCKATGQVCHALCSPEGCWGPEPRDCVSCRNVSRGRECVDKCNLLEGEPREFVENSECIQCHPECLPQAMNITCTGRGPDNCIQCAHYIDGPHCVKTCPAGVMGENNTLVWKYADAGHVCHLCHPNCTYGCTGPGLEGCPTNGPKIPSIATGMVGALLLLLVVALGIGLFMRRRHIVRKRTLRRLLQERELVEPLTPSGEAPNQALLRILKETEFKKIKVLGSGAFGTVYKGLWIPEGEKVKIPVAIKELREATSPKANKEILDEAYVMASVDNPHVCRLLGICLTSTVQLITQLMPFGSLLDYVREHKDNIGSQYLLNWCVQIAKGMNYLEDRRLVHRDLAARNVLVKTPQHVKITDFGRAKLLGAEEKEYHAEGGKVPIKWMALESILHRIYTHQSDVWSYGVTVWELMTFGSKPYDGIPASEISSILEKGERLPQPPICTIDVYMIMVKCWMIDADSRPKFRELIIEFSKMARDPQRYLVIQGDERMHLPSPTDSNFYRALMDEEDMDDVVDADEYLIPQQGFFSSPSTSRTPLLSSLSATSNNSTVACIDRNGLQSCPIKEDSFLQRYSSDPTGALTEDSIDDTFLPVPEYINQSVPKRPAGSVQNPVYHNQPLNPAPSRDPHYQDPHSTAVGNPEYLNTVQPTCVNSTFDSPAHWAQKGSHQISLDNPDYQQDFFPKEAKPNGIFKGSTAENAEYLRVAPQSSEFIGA

[5] = maximum percentage of inhibition (degradation)

SMILES | DC50 [1] | DC50 [2] | Dmax (%) H1975 # 28 DTC [2] | H1975 #23 DC Dmax (%) [3] | DC50 [3] | DC50 [4] | Dmax (%) BaF3-LTC [1, 5] | Dmax [4] | Dmax [1, 5]
CCOc1cc(N2CCC(N3CCN(CCc4c(F)ccc5c4n(CC)c(=O)n5C4CCC(=O)NC4=O)CC3)CC2)c(CC)cc1Nc1ncc(Br)c(Nc2ccc3c(=O)n(CC)ncc3c2P(C)(C)=O)n1 (stereo not shown) [Example 559, 3-(4-(2-(4-(1-(4-((5-bromo-4-((5-(dimethylphosphoryl)-2-ethyl-1-oxo-1,2-dihydrophthalazin-6-yl)amino)pyrimidin-2-yl)amino)-5-ethoxy-2-ethylphenyl)piperidin-4-yl)piperazin-1-yl)ethyl)-3-ethyl-5-fluoro-2-oxo-2,3-dihydro-1H-benzo[d]imidazol-1-yl)piperidine-2,6-dione] | 12 nM | 0.364 nM | 80.93% | 73.67% | 5.38 nM | 26.9 nM |  |  | 
CCOc1cc(N2CCC(N3CCN(CCc4ccc5c(c4)oc(=O)n5C4CCC(=O)NC4=O)CC3)CC2)c(CC)cc1Nc1ncc(Br)c(Nc2ccc3nc(C)ccc3c2P(C)(C)=O)n1 (stereo not shown) [Example 532] | 2.96 nM | 0.642 nM | 70.91% | 52.49% | 0.591 nM | 3.84 nM | 95.58% | 88.1% | 
CCc1ncc2c(P(C)(C)=O)c(Nc3nc(Nc4cc(CC)c(N5CCC(N6CCN(C(=O)[C@@H]7CCN(c8cc(F)c([C@H]9CCC(=O)NC9=O)c(F)c8)C7)CC6)CC5)cc4OC)ncc3Br)ccc2n1 [Example 549, (R)-3-(4-((R)-3-(4-(1-(4-((5-bromo-4-((5-(dimethylphosphoryl)-2-ethylquinazolin-6-yl)amino)pyrimidin-2-yl)amino)-2-ethyl-5-methoxyphenyl)piperidin-4-yl)piperazine-1-carbonyl)pyrrolidin-1-yl)-2,6-difluorophenyl)piperidine-2,6-dione] | 3.1 nM | 0.601 nM | 88.85% | 63.66% | 2.96 nM | 1.59 nM |  |  | 
CCOc1cc(N2CCC(N3CCN(CCc4cc5oc(=O)n(C6CCC(=O)NC6=O)c5cc4C)CC3)CC2)c(CC)cc1Nc1ncc(Br)c(Nc2cc(F)c3nc(CC)ccc3c2P(C)(C)=O)n1 (stereo not shown) [Example 553, 3-(6-(2-(4-(1-(4-((5-bromo-4-((5-(dimethylphosphoryl)-2-ethyl-8-fluoroquinolin-6-yl)amino)pyrimidin-2-yl)amino)-5-ethoxy-2-ethylphenyl)piperidin-4-yl)piperazin-1-yl)ethyl)-5-methyl-2-oxobenzo[d]oxazol-3(2H)-yl)piperidine-2,6-dione] | 2.49 nM | 0.712 nM | 61.54% | 53.56% | 0.828 nM | 1.23 nM |  | 93.3% | 90.7%
CCOc1cc(N2CCC(N3CCN(CCc4cccc5c4C(C)(C)C(=O)N5C4CCC(=O)NC4=O)CC3)CC2)c(CC)cc1Nc1ncc(Br)c(Nc2ccc3nc(CC)ccc3c2P(C)(C)=O)n1 (stereo not shown) [Example 572, 3-(4-(2-(4-(1-(4-((5-bromo-4-((5-(dimethylphosphoryl)-2-ethylquinolin-6-yl)amino)pyrimidin-2-yl)amino)-5-ethoxy-2-ethylphenyl)piperidin-4-yl)piperazin-1-yl)ethyl)-3,3-dimethyl-2-oxoindolin-1-yl)piperidine-2,6-dione] | 3.21 nM | 1.81 nM | 83.86% | 69.16% | 4.74 nM | 3.8 nM |  |  | 
CCc1ccc2c(P(C)(C)=O)c(Nc3nc(Nc4cc(CC)c(N5CCC(N6CCN(CCc7cc(F)c(C8CCC(=O)NC8=O)c(F)c7)CC6)CC5)cc4OC)ncc3Br)ccc2n1 (stereo not shown) [Example 485, 3-(4-(2-(4-(1-(4-((5-bromo-4-((5-(dimethylphosphoryl)-2-ethylquinolin-6-yl)amino)pyrimidin-2-yl)amino)-2-ethyl-5-methoxyphenyl)piperidin-4-yl)piperazin-1-yl)ethyl)-2,6-difluorophenyl)piperidine-2,6-dione] | 26.9 nM | 2.78 nM | 70.65% | 82.7% | 10.4 nM | 35.1 nM |  |  | 
CCOc1cc(N2CCC(N3CCN(CC4CN(c5cc(F)cc6c5oc(=O)n6C5CCC(=O)NC5=O)C4)CC3)CC2)c(CC)cc1Nc1ncc(Br)c(Nc2ccc3nc(CC)ccc3c2P(C)(C)=O)n1 (stereo not shown) [Example 479, 3-(7-(3-((4-(1-(4-((5-bromo-4-((5-(dimethylphosphoryl)-2-ethylquinolin-6-yl)amino)pyrimidin-2-yl)amino)-5-ethoxy-2-ethylphenyl)piperidin-4-yl)piperazin-1-yl)methyl)azetidin-1-yl)-5-fluoro-2-oxobenzo[d]oxazol-3(2H)-yl)piperidine-2,6-dione] | 7.8 nM | 2.81 nM | 95.6% | 76.53% | 4.91 nM | 20.3 nM |  | 82.7% | 88.8%
CCc1cc(Nc2ncc(Br)c(Nc3ccc4c(=O)n(C)ncc4c3P(C)(C)=O)n2)c(OC)cc1N1CCC(N2CCN(CCc3cccc4c3C3(CC3)C(=O)N4C3CCC(=O)NC3=O)CC2)CC1 (stereo not shown) [Example 756, 3-(4′-(2-(4-(1-(4-((5-bromo-4-((5-(dimethylphosphoryl)-2-methyl-1-oxo-1,2-dihydrophthalazin-6-yl)amino)pyrimidin-2-yl)amino)-2-ethyl-5-methoxyphenyl)piperidin-4-yl)piperazin-1-yl)ethyl)-2′-oxospiro[cyclopropane-1,3′-indolin]-1′-yl)piperidine-2,6-dione] | 2.31 nM | 0.608 nM | 80.03% | 73.8% | 1.69 nM | 10.1 nM |  |  | 
CCOc1cc(N2CCC(N3CCN(CC4CN(c5cccc6c5oc(=O)n6C5CCC(=O)NC5=O)C4)CC3)CC2)c(CC)cc1Nc1ncc(Br)c(Nc2ccc3nc(CC)ccc3c2P(C)(C)=O)n1 (stereo not shown) [Example 497] | 6.27 nM | 1.01 nM | 80.94% | 74.87% | 3.32 nM | 5.19 nM |  | 93.3% | 86.6%
CCOc1cc(N2CCC(N3CCN(CCc4ccc5c(c4)oc(=O)n5C4CCC(=O)NC4=O)CC3)CC2)c(CC)cc1Nc1ncc(Br)c(Nc2cc(F)c3nc(CC)ccc3c2P(C)(C)=O)n1 (stereo not shown) [Example 500, 3-(6-(2-(4-(1-(4-((5-bromo-4-((5-(dimethylphosphoryl)-2-ethyl-8-fluoroquinolin-6-yl)amino)pyrimidin-2-yl)amino)-5-ethoxy-2-ethylphenyl)piperidin-4-yl)piperazin-1-yl)ethyl)-2-oxobenzo[d]oxazol-3(2H)-yl)piperidine-2,6-dione] | 2.42 nM | 0.413 nM | 71.9% | 55.74% | 1.11 nM | 1.11 nM |  | 92% | 84.8%
